Test [1] concerns MRSA strain ATCC 43300. The conditions noted are these: selection at ten times the MIC value.
Description: Selective plates were grown for 30 hours at 37°C. […] Direct colony PCR was used to isolate and amplify the dfrA gene from resistant strains using methods described in [34]. All PCR products were screened for point mutations in DHFR by high quality DNA sequencing (Genewiz). Primers used to detect the dfrA gene contained restriction enzyme cut sites for NdeI and XhoI in order to ligate PCR products into the pET41 vector for further validation with DNA sequencing with the T7 promoter sequencing primer. Mutation frequencies were calculated based on the sequencing information provided for each mutant colony.
The target in test [2] is T1, Human DHFR (Homo sapiens, UniProt P00374).
T1 sequence (P00374 1-187): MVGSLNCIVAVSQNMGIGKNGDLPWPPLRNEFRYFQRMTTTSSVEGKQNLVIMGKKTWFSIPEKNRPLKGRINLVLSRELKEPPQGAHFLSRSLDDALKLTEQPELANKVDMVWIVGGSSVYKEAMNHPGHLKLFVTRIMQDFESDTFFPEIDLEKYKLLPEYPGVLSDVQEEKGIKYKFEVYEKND
Description: DHFR enzyme inhibition assay (NADPH oxidation, 340 nm). The conditions noted are these: human DHFR; average of at least three measurements; read-out: IC50 (nM) Human. It counts as biochemical. On the procedure:
(§1) Enzyme inhibition assays were performed by monitoring the rate of NADPH oxidation by the DHFR enzyme at an absorbance of 340 nm over five minutes. Assays were performed in the presence of saturating concentrations of NADPH (100 µM) and initiated with dihydrofolate (1 mM). All assays were completed at 25°C in a buffer containing 20 mM TES pH 7.0, 50 mM KCl, 10 mM 2-mercaptoethanol, 0.5 mM EDTA and 1 mg/mL BSA. Inhibition was measured at least three times with inhibitor concentrations near the IC50 value and the average IC50 value is reported with a standard deviation.

Test [3] relates to USA100 HA-MRSA. Description: MIC against clinical isolates of MRSA. The class given is cell-based. The conditions noted are these: Staphylococcus aureus, clinical isolate, read-out: MIC USA100 HA-MRSA.
Test [4] deals with S. pyogenes DHFR (Streptococcus pyogenes, UniProt Q9A091). As to the kind of experiment: biochemical. It counts as biochemical. The procedure: (§2) S. aureus DHFR was cloned, expressed and purified as previously described. Briefly, the DHFR gene was inserted into vector pET41 with a His8 tag for purification. The protein was expressed in E. coli BL21 (DE3) cells. […] The protein was concentrated to ∼5 mg/mL. S. pyogenes DHFR was cloned using PCR from genomic DNA and inserted in vector pET-41.
Sequence of S. pyogenes DHFR (Q9A091 entry or part of it): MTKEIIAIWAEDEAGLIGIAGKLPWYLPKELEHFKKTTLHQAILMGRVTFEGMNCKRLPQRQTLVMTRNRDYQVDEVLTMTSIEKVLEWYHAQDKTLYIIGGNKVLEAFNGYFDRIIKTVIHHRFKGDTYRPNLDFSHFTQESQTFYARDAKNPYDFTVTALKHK
as §1

For test [5], the target named is T2, S. aureus DHFR (Staphylococcus aureus, UniProt P0A017).
T2 construct: the DHFR gene was inserted into vector pET41 with a His8 tag for purification; His8; made in house; host or cells: E. coli BL21 (DE3)
T2 sequence (P0A017 whole entry): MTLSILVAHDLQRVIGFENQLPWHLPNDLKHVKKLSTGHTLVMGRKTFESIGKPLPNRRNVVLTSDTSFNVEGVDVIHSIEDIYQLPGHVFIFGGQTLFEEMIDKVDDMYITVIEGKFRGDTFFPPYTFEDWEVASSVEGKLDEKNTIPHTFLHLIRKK
As to the kind of experiment: biochemical. The class given is biochemical. The procedure:
as §2, §1

Test [6] deals with HA-MRSA. As to the kind of experiment: MIC against clinical isolates of MRSA. The class given is cell-based. The conditions noted are these: Staphylococcus aureus, clinical isolate, read-out: MIC HA-MRSA.
Test [7] relates to MRSA (S.aureus 13709). Description: MIC, broth microdilution with Alamar Blue. It counts as cell-based, Staphylococcus aureus. The note with it: for MIC: Staphylococcus aureus, MRSA. On the procedure: (§3) Stock solutions of standard antibiotics and test compounds were made at 50 mM in DMSO. […] For susceptibility testing, 10 µL of glycerol stock was suspended in a 10 mL shake flask culture of chemically defined Isosensitest broth (Oxoid) supplemented with 2% w/v glucose. A sample of the shake flask culture was diluted to 1×10^6 cells/mL in media and added to 96-well test plates (100 µL per well) containing test compounds dispensed in DMSO (2 µL) using serial two-fold dilutions. After an incubation period (30°C) determined from the strain specific doubling time, a 0.03% w/v aqueous solution of resazurin (10 µL) was added and the plates were allowed to incubate; each well was then scored for dye reduction.

In test [8] the test system is MRSA strain containing the F98Y mutation. Description: MIC against MRSA strain containing the F98Y mutation. It counts as cell-based. The conditions noted are these: Staphylococcus aureus, read-out: MIC against MRSA strain containing the F98Y mutation.
Test [9] concerns USA300 CA-MRSA. As to the kind of experiment: MIC against clinical isolates of MRSA. The class given is cell-based, Staphylococcus aureus. The note with it: Staphylococcus aureus, clinical isolate, read-out: MIC USA300 CA-MRSA.
The subject of test [10] is MCF-10 cells. As to the kind of experiment: Mammalian cell toxicity (Alamar Blue). It counts as cell-based. The note with it: Homo sapiens, MCF10; cytotoxicity, 4 h incubation; read-out: IC50 MCF-10. On the procedure: Adherent cell lines were maintained in Eagle's Minimal Essential Media (Sigma-Aldrich, St. Louis, MO, USA) with 2 mM glutamine and Earle's Balanced Salt Solution (HyClone, Logan, UT, USA) adjusted to contain 1.5 g/L sodium bicarbonate, 0.1 mM non-essential amino acids, 1 mM sodium pyruvate and 10% fetal calf serum. Fetal calf serum used in these assays was lot matched throughout. […] Toxicity assays were conducted between passages 10–20. Target compound toxicity was measured by incubating the test compound with the cells for 4 h, washing the cells and finally treating the cells with Alamar Blue. After 12–24 h, the fluorescence of the reduced dye was measured. Fluorescence intensity as a function of test compound concentration was fit to the Fermi equation, using non-linear least squares regression analysis, to estimate IC50 values.

Test [11] relates to Streptococcus pyogenes. Description: MIC, broth microdilution with Alamar Blue. The note with it: for MIC: Streptococcus pyogenes. It counts as cell-based. The procedure: as §3
The test system of test [12] is Staphylococcus aureus subsp. aureus ATCC 44300. As to the kind of experiment: MIC and MBC determination (microdilution, plating on Isosensitest agar). It counts as cell-based. The note with it: ATCC44300. From the text:
MBC was defined as the lowest concentration of inhibitor preventing colony growth on agar plates.

In test [13] the test system is TMP-SMZ-resistant MRSA strain. Description: MIC against clinical isolates of MRSA. The class given is cell-based. The conditions noted are these: Staphylococcus aureus, clinical isolate, Table 4, read-out: MIC TMP-SMZ^R.
For test [14], the system named is VISA Mu50. Description: MIC against clinical isolates of MRSA. It counts as cell-based. The conditions noted are these: Staphylococcus aureus, read-out: MIC VISA Mu50.
Test [15] deals with HepG2 cells. Description: Mammalian cell toxicity (Alamar Blue). It counts as cell-based. The conditions noted are these: Homo sapiens, cytotoxicity, 4 h incubation. The procedure: Fetal calf serum used in these assays was lot matched throughout. All cultures were maintained under a humidified 5% CO2 atmosphere at 37°C, had media refreshed twice weekly and were subcultured by trypsinization and resuspension at a ratio of 1∶5 each week. Toxicity assays were conducted between passages 10–20. Target compound toxicity was measured by incubating the test compound with the cells for 4 h, washing the cells and finally treating the cells with Alamar Blue. After 12–24 h, the fluorescence of the reduced dye was measured. Fluorescence intensity as a function of test compound concentration was fit to the Fermi equation, using non-linear least squares regression analysis, to estimate IC50 values.

Test [16] concerns hVISA Mu3. As to the kind of experiment: MIC against clinical isolates of MRSA. It counts as cell-based. The conditions noted are these: Staphylococcus aureus; heteroresistant vancomycin intermediate S. aureus; read-out: MIC hVISA Mu3.
For test [17], the system named is MRSA strain containing the F98Y mutation. The conditions noted are these: cited from earlier work.
[18] abbreviates: IC50 (MCF10)/MIC (pathogen), both values in µM.
Where [19] appears, read: 10% fetal calf serum, value in parentheses, read-out: MIC MRSA +FCS.
[20] abbreviates: value in parentheses, read-out: MIC MRSA.
[21] abbreviates: 10% FCS, read-out: MIC S. pyogenes +FCS.
The mark [22] stands for this setting: 10% FCS, value in parentheses, read-out: MIC S. pyogenes +FCS.
Where [23] appears, read: value in parentheses, read-out: MIC S. pyogenes.

We go through three molecules from PMC3274548, “Toward New Therapeutics for Skin and Soft Tissue Infections: Propargyl-Linked Antifolates Are Potent Inhibitors of MRSA and Streptococcus pyogenes” (PLoS ONE, 2012).

Values after ≈ are worked out from the molar mass of the structure shown. Read-outs that look alike come from different tables or passages of the source.

As to `COc1cc(-c2ccncc2)cc(C(C)C#Cc2c(C)nc(N)nc2N)c1` (stereo not shown) [Compound 24], the resistance frequency in test [1] is on record as 3.9×10^−10. In addition, the IC50 in test [2] is 1500 ± 8 nM; in test [5] (S. aureus DHFR, average of at least three measurements, read-out: IC50 (nM) Sa), 26 ± 2 nM; in [10], 220 µM; in test [15], 233 µM. In addition, the minimal inhibitory concentration (MIC) was 0.045 µg/mL (≈ 0.125 µM) in test [3] (USA100); 2.9 µg/mL (≈ 8.07 µM) in test [3] (first USA100 column); 0.09 µg/mL (≈ 0.25 µM) in [3] (third USA100 column); 0.09 µg/mL (≈ 0.25 µM) in [6]; 0.09 µg/mL in test [7] (10% fetal calf serum, read-out: MIC MRSA +FCS); 0.25 µM in test [7] (setting [19]). Further, the MIC in [7] (setting [20]) came out at 0.125 µM; in test [7] (read-out: MIC MRSA), 0.04 µg/mL; in test [8] it was 2.5 µg/mL (≈ 6.96 µM); in [9] (USA300), 0.09 µg/mL (≈ 0.25 µM); in test [9], 0.045 µg/mL (≈ 0.125 µM); in test [11] (setting [21]), 0.09 µg/mL. In addition, the MIC was found to be 0.25 µM in test [11] (setting [22]); 0.125 µM in [11] (setting [23]); 0.04 µg/mL in test [11] (read-out: MIC S. pyogenes); 0.078 µg/mL (≈ 0.217 µM) in test [12]; 0.045 µg/mL (≈ 0.125 µM) in test [13]; 0.18 µg/mL (≈ 0.501 µM) in [14]. In addition, in test [16], the MIC turned out to be 0.045 µg/mL (≈ 0.125 µM). The “Selectivity (h/Sp)” value in [4] (IC50 (human)/IC50 (pathogen)) is 9.4. The “Selectivity (h/Sa)” value in test [5] (IC50 (human)/IC50 (pathogen)) turned out to be 58. Further, the “Selectivity MRSA” value in test [7] (setting [18]) is reported as 1,760. The “Selectivity S. pyogenes” value in test [11] (setting [18]) is listed as 1,760. For the same molecule, in [12], the MBC came out at 0.078 µg/mL (≈ 0.217 µM).
Turning to `CCc1nc(N)nc(N)c1C#CC(C)c1cc(OC)cc(-c2ccncc2)c1` (stereo not shown) [Compound 25], the IC50 in test [2] is 1300 ± 11 nM; in test [4], 0.18 ± 0.019 µM; in test [5], 19 ± 1 nM; in test [10] it was 85 µM; in [15], 171 µM. Further, the MIC in [3] (USA100) was found to be 0.09 µg/mL (≈ 0.241 µM); in test [3] (first USA100 column), 2.9 µg/mL (≈ 7.77 µM); in test [3] (third USA100 column) it was 0.09 µg/mL (≈ 0.241 µM); in test [6], 0.02 µg/mL (≈ 0.0536 µM); in [7] (setting [20]) it was 0.5 µM; in [7] (read-out: MIC MRSA), 0.09 µg/mL. The MIC in test [9] (USA300) worked out at 0.09 µg/mL (≈ 0.241 µM); in test [9], 0.045 µg/mL (≈ 0.12 µM); in test [11] (setting [23]), 0.032 µM; in [11] (read-out: MIC S. pyogenes), 0.012 µg/mL; in [12] it was 0.078 µg/mL (≈ 0.209 µM); in test [13] it was 0.09 µg/mL (≈ 0.241 µM). For the same molecule, the MIC in test [14] and in test [16] was 0.09 µg/mL (≈ 0.241 µM) in each case. Further, the MBC in test [12] turned out to be 0.078 µg/mL (≈ 0.209 µM).
In the case of `COc1cc(Cc2cnc(N)nc2N)cc(OC)c1OC` [TMP, trimethoprim, reference compound], the “MIC MRSA” value in [7] is 0.14 µg/mL (≈ 0.482 µM). For the same molecule, in test [7] (10% fetal calf serum), the “MIC MRSA +FCS” value came out at 0.14 µg/mL (≈ 0.482 µM). The MIC stood at 0.5 µM in [7] (setting [19]); 0.5 µM in test [7] (setting [20]); 0.58 µg/mL in test [11] (setting [21]); 2 µM in test [11] (setting [22]); 2 µM in test [11] (setting [23]); 0.58 µg/mL in [11] (read-out: MIC S. pyogenes). The “MIC against the F98Y strain” value in test [17] is 16 µg/mL (≈ 55.1 µM).
